We go through three compounds from paper PMC10379611 (International Journal of Molecular Sciences, 2023).

Entries after “also recorded” stand apart in the source; their conditions may differ. Like-named read-outs stand apart in the source and are kept apart here.

By IC50 is commonly meant the concentration needed to halve the response being measured. The term inhibition denotes how much of the control response was suppressed.

For one data set, the target named is T1, OATP1A2 (Homo sapiens, UniProt P46721).
T1 sequence (P46721 1-670): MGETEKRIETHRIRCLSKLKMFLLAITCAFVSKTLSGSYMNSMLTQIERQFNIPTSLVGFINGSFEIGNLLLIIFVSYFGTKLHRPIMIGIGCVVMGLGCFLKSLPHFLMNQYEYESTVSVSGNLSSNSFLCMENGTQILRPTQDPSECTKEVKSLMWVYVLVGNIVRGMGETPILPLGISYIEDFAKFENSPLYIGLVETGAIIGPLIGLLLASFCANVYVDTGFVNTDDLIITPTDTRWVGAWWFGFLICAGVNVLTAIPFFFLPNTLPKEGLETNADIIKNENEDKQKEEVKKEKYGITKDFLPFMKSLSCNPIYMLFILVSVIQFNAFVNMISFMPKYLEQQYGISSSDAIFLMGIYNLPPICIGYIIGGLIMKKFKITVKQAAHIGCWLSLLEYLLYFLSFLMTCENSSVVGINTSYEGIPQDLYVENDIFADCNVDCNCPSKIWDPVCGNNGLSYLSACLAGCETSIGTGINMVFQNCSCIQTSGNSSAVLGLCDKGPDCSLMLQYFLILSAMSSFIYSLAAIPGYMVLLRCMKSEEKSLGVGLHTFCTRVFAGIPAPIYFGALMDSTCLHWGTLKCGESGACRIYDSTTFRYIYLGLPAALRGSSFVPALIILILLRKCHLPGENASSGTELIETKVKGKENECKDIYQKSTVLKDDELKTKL
Briefly: OATP1A2 uptake assay (SR101) in overexpressing A431 cells. How it is done: To study the function of OATPs, we used A431 cells overexpressing OATP1A2, OATP1B1, OATP1B3, or OATP2B1 and mock-transfected A431 cells, generated as previously described, as controls. The interactions between OATPs and the test compounds were studied in a microplate-based indirect assay by employing fluorescent dye substrates: pyranine for OATP1B1, OATP1B3, OATP2B1 and sulforhodamine 101 for OATP1A2 [44, 45]. Briefly, OATP-overexpressing A431 cells and mock-transfected A431 cells were seeded on 96-well plates (8 × 10^4 cells/well). The next day, the cells were washed three times with phosphate buffered saline (PBS, pH 7.4) and preincubated with 50 μL uptake buffer (125 mM NaCl, 4.8 mM KCl, 1.2 mM CaCl2, 1.2 mM KH2PO4, 12 mM MgSO4, 25 mM MES (2-(Nmorpholino) ethanesulfonic acid, and 5.6 mM glucose, pH 5.5 for OATP2B1 and pH 7.4 for OATP1A2, OATP1B1, or OATP1B3) at 37 °C for 5 min in the presence or absence of the tested compounds. The reaction was started by the addition of a final concentration of 20 μM pyranine (OATP1B1, OATP1B3, OATP2B1) or 0.5 μM sulforhodamine 101 (OATP1A2). After incubation at 37 °C for 10 min, the reactions were stopped and the cells were washed three times with ice-cold PBS. Fluorescence was measured using an Enspire plate reader (Perkin Elmer, Waltham, MA, USA) (Ex/Em: 460/510 nm (pyranine) or 586/605 nm (sulforhodamine 101), and OATP-dependent transport activity was determined by subtracting the fluorescence measured in mock-transfected cells.

A further data set concerns the target T2, OATP1B1 (Homo sapiens, UniProt Q9Y6L6).
T2 sequence (Q9Y6L6 1-691): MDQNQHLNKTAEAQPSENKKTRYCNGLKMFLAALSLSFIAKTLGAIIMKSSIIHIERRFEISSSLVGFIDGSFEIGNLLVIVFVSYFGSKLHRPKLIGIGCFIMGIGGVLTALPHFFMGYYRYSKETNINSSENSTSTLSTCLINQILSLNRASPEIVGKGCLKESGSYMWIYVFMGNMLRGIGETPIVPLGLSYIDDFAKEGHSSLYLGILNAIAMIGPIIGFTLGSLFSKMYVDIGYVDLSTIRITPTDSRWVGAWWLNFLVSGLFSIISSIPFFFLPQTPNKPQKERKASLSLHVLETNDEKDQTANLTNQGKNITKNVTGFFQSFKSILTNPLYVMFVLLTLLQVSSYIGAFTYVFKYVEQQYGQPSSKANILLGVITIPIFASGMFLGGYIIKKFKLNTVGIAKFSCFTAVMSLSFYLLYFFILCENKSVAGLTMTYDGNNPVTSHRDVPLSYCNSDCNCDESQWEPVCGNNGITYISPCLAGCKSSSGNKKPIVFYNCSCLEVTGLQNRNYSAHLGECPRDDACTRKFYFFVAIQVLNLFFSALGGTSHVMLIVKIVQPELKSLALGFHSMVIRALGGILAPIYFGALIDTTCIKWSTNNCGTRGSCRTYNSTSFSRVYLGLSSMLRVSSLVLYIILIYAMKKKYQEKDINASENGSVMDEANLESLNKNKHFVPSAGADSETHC
As to the kind of experiment: OATP1B1 uptake assay (pyranine) in overexpressing A431 cells.

In the next data set the target is T3, OATP1B3 (Homo sapiens, UniProt Q9NPD5).
T3 sequence (Q9NPD5 1-702): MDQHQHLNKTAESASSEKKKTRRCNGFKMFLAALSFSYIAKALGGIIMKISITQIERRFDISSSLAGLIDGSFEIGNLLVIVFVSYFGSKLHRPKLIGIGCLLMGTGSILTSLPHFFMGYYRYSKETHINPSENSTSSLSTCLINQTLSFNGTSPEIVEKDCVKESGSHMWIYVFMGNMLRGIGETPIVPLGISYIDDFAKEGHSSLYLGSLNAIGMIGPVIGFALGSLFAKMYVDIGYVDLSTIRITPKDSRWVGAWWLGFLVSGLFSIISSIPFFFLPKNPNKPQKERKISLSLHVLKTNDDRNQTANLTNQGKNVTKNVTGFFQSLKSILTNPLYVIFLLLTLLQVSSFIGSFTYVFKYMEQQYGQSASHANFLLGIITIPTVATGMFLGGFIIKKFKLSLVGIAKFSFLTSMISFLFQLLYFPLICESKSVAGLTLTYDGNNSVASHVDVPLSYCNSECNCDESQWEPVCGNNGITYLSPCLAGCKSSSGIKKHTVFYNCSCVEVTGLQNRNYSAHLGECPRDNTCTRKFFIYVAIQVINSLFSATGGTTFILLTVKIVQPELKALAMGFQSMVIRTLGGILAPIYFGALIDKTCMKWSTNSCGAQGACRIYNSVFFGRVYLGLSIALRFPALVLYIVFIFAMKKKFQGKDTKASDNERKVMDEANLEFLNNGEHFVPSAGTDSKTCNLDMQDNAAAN
As to the kind of experiment: OATP1B3 uptake assay (pyranine) in overexpressing A431 cells.

The target in the next data set is ABCB1 (Homo sapiens, UniProt P08183). Briefly: ABCB1 vesicular transport (NMQ), HEK293 inverted membrane vesicles. To be noted: for effect on ABCB1 NMQ vesicular transport: up to 200 μM.
Sequence of ABCB1 (P08183 whole entry): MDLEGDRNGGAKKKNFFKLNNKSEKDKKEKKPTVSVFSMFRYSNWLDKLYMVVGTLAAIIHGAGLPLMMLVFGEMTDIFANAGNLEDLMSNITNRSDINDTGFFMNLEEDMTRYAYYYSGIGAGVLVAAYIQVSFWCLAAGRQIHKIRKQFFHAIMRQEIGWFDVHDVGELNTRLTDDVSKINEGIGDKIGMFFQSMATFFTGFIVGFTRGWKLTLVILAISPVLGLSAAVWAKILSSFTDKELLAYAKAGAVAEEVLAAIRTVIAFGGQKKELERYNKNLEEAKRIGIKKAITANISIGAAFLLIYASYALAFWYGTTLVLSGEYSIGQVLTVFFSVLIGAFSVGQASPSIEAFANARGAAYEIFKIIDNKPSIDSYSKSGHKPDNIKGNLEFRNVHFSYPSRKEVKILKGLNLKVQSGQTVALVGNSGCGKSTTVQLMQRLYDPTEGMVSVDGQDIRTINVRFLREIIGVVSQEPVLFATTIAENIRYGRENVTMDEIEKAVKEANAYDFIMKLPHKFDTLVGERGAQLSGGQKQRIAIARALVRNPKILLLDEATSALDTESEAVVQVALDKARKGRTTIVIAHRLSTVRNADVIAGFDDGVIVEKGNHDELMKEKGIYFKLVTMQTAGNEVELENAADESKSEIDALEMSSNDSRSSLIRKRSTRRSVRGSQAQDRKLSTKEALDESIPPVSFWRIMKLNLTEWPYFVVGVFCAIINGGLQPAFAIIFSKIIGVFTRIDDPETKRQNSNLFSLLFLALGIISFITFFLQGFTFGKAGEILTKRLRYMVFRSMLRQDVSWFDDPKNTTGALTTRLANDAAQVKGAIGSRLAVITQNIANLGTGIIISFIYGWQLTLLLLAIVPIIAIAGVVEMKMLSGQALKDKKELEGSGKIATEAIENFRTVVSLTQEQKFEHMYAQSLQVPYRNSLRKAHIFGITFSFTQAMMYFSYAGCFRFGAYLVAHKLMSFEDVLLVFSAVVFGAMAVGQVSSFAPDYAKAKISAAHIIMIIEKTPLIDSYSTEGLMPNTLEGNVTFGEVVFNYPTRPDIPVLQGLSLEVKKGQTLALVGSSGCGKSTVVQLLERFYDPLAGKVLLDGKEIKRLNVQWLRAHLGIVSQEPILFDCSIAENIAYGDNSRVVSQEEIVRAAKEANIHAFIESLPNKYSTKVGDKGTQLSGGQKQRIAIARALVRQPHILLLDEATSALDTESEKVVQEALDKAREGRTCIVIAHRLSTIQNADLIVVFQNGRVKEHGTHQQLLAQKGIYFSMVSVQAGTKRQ

In the case of `O=c1nc(NO)ccn1[C@@H]1O[C@H](CO)[C@@H](O)[C@H]1O` [EIDD-1931], the “maximum inhibition of OATP1A2” value at OATP1A2 (at 200 μM, SR101) is 20–40%. Besides, the IC50 on OATP1A2 (read-out: estimated IC50, OATP1A2, SR101 substrate, A431 cells) is above 200 µM; at OATP1B1 (read-out: estimated IC50, OATP1B1, pyranine substrate, A431 cells), above 200 µM; at OATP1B3 (read-out: estimated IC50, OATP1B3, pyranine substrate, A431 cells), above 200 µM. Further, the “maximum inhibition of OATP1B1” value at OATP1B1 (at 200 μM, pyranine) is on record as 20–40%. The “maximum inhibition of OATP1B3” value at OATP1B3 (at 200 μM, pyranine) is 20–40%. Besides, the “effect on ABCB1 NMQ vesicular transport” value at ABCB1 was “neither the function of ABCB1 nor that of ABCG2 was altered”.

`CC(C)C(=O)OC[C@H]1O[C@@H](n2ccc(NO)nc2=O)[C@H](O)[C@@H]1O` [EIDD-2801, Molnupiravir]: the IC50 at OATP1A2, against OATP1B1 and against OATP1B3 was above 200 µM each time. The inhibition at 10 min, 200 µM against OATP1A2 (human, A431 cells overexpressing OATP1A2, pH 7.4, probe sulforhodamine 101 (0.5 μM)) is 20 to 40%; against OATP1B1 (human, A431 cells overexpressing OATP1B1, pH 7.4, probe pyranine (20 μM)), 20 to 40%; against OATP1B3 (human, A431 cells overexpressing OATP1B3, pH 7.4, probe pyranine (20 μM)), 20 to 40%. Moreover, at ABCB1, the “effect on ABCB1 NMQ vesicular transport” value is “neither the function of ABCB1 nor that of ABCG2 was altered”.

On to `CC(C)(C)[C@H](NC(=O)C(F)(F)F)C(=O)N1C[C@H]2[C@@H]([C@H]1C(=O)N[C@H](C#N)C[C@@H]1CCNC1=O)C2(C)C` [Nirmatrelvir], for which the “inhibition of OATP1A2 by Nirmatrelvir alone” value against OATP1A2 (at 20 μM) is given as “only a minor inhibitory effect”. On OATP1A2 (human, pH 7.4), this compound returned an IC50 at 10 min of 79.5 µM. Besides, the “inhibition of OATP1B1 by Nirmatrelvir alone” value at OATP1B1 (at 20 μM) was “only a minor inhibitory effect”. Moreover, the “inhibition of OATP1B3 by Nirmatrelvir alone” value against OATP1B3 (at 20 μM) is “only a minor inhibitory effect”. Besides, the “additional effect of Nirmatrelvir on ABCB1 inhibition by Ritonavir” value at ABCB1 (NIR in combination with RIT) is recorded as “no additional effect”. Besides, the “effect on ABCB1 NMQ vesicular transport” value on ABCB1 is “moderate inhibitory effect; also recorded: only a weak inhibitory effect”.
